A short description of data set [1]: method code SF-GLC, from DOI: 10.1016/s0021-9673(99)01009-2, PMID: 10669289.

Molecules are shown by their SMILES.

As to `CC1=CCC(O)(C(C)C)CC1` (configuration not stated), in data set [1], the logP stood at 2.8. For `CC1=CCC(=C(C)C)CC1`, the lipophilicity (logP) came out at 4.24.

Take `C=CC1(C)CCC(C(C)(C)O)O1` (configuration not stated): the logP stood at 2.43. Take `CC1=CCC(C(C)(C)O)CC1` (configuration not stated): in data set [1], the logP came out at 3.28.

For `Cc1ccc(C(C)C)cc1O`, the logP is 3.49. Still for that read-out and setting: under `CC1=C[C@H](O)[C@H]2C[C@@H]1C2(C)C` stands 3.16. Same read-out and setting: under `C/C=C/c1ccc(O)c(OC)c1` stands 3.04; under `C=C(C)[C@H]1CC[C@H](C)[C@@H](O)C1`, 3.21; under `CC1=CCC2C(C1)C2(C)C` (configuration not stated), 4.38. In data set [1], `C=C(C)C1CC=C(C)C(O)C1` (configuration not stated) returned a logP of 2.85. For `CC1(C)[C@@H]2CC=C(C=O)[C@H]1C2`, the logP turned out to be 2.98.

On to `CC1=CCC(C(C)(C)O)CC1O` (configuration not stated), for which, in data set [1], the logP was 1.11. Compound `CC12CCC(CC1)C(C)(C)O2` returned a logP of 2.84. Turning to `CC12CCC(CC1=O)C2(C)C` (configuration not stated), the logP turned out to be 2.74. `CC(C)=CCC/C(C)=C/CO` came in with a logP of 3.56. On the same count and under the same terms, under `CC1=CC=C(C(C)C)CC1` stands 4.25.

`C=C(C)C1CCC(C)C(=O)C1` (configuration not stated) showed a logP in data set [1] of 2.85. As to `C=C(C)C1CCC2(C)OC2C1` (configuration not stated), the logP came out at 3.2. On to `CC1=CC(=O)C(C(C)C)CC1` (configuration not stated), for which the logP turned out to be 2.85.

In turn, `CC(=O)/C=C/[C@H]1C(C)=CCCC1(C)C` displayed a logP of 3.85. Still for that read-out and setting: under `CC(=O)OC1C[C@H](C)CCC1C(C)C` (some centres not stated) stands 4; under `CC1=CCC2[C@H](C1=O)C2(C)C` (some centres not stated), 2.42.

With `CC1(C)C2CCC(CN)C1C2` (configuration not stated), the logP was found to be 2.05. Turning to `C=C(C)[C@H]1CC=C(C)C(=O)C1`, the logP in data set [1] was found to be 2.71. As for `CC1=CC(=O)[C@H]2CC1C2(C)C`, the logP amounted to 2.23. The same measure, in the same setting: under `CC1(C)[C@H]2CC[C@@H](CO)[C@@H]1C2` stands 3.41.

In turn, `CC(C)=CCC[C@@H](C)CC=O` showed a log partition coefficient (logP) of 3.83. For the compound `CC(=O)OC(C)(C)C1C=CC(C)CC1` (configuration not stated), in data set [1], the logP is 3.96. As for `CC(=O)C=CC1=C(C)CCCC1(C)C`, the logP stood at 3.84. Same read-out and setting: under `CC1=CC2C(CC1)C2(C)C` (configuration not stated) stands 4.44; under `CC12CC[C@@H](C1)C(C)(C)C2=O` (stereo in doubt), 3.17. `C=CC(C)(CCC=C(C)C)OC(C)=O` (configuration not stated): the logP was determined as 3.93.

On to `CC(C)=C1CC[C@@H](C)CC1=O`, for which the logP was 3.08.

The compound `C=CCc1ccc(OC)c(OC)c1` showed a logP of 3.45. Compound `CC(C)[C@@H]1CC[C@@H](C)CC1=O` came in with a logP of 3.05. On the same count and under the same terms, under `CC(C)C12CCC(C)(CC1)O2` stands 2.97. The compound `CC1(C)[C@H]2CC=C(CO)[C@@H]1C2` had a lipophilicity (logP) of 3.22. Still for that read-out and setting: next, `CC(=O)OC/C=C(\C)CCC=C(C)C`: 4.04. `C=C(C)[C@@H]1CC=C(C=O)CC1` registered a logP of 3.13. The compound `CC1(C)C2CCC1(C)C(O)C2` (configuration not stated) came in with a logP of 3.01. As for `CC1=CCC2C[C@H]1C2(C)C`, in data set [1], the lipophilicity (logP) amounted to 4.44. Compound `C=C(C)[C@@H]1CC=C(CO)CC1` displayed a logP of 3.17.

Broadly, the logP is a log measure of how a compound divides between an organic and an aqueous phase. A lower logP goes with lower lipophilicity.

The values are drawn from the SangsterLogP compilation.
